From patent US8933233B2, “1,3,4-oxadiazole and 1,3,4-thiadiazole β-lactamase inhibitors” (priority 2012, dated 2015)
Counter-ions that a name gives are not always drawn.

Tests used:
[1] = test system: bacterial strains that express the class D cephalosporinase OXA-15; experiment: Synergy MIC / standard BLI potentiation MIC assay, strains expressing OXA-15; format: cell-based, E. coli; conditions: in presence of a β-lactam; comparator Avibactam (CCC)
Procedure: (§1) Unless otherwise indicated, the activity of the BLI compounds can be described by the MIC value obtained from a Synergy MIC assay or a BLI potentiation assay (e.g as described herein), both of which are run in the presence of a β-lactam.
(§2) The experimental protocol was performed according to Clinical and Laboratory Standards Institute (CLSI) guidelines with modifications as described below (CLSI guidelines can be derived from the CLSI document M07-A9 published in January 2012: “Methods for Dilution Antimicrobial Susceptibility Tests for Bacteria That Grow Aerobically; Approved Standard-Ninth Edition”).
(§3) To prepare for MIC testing, frozen glycerol stocks of clinical isolates (Klebsiella pneumoniae, Eschericia coli, Enterobacter spp, Citrobacter spp, or Pseudomonas aeruginosa) were used to streak for isolated colonies on rich, non-selective, tryptic soy agar containing 5% sheep's blood (TSAB). Frozen glycerol stocks of laboratory engineered, isogenic E. coli strains, which contain cloned β-lactamase expressing plasmids were used to streak for isolated colonies on rich, selective LB agar supplemented with 25 μg/mL tetracycline to maintain the plasmid. All strains were incubated at 37° C. for 18-24 hrs.
(§4) On the day of testing, primary cultures were started by scraping off 5-10 colonies from the TSAB plates containing clinical strains or the tetracycline supplemented LB plates containing engineered strains. The clinical strain material was suspended in ˜5 mL of cation adjusted Mueller Hinton Broth (CAMHB) in 14 mL culture tubes. The engineered strain material was suspended in CAMHB (supplemented with 25 μg/mL tetracycline) in 14 mL culture tubes. All strains were incubated at 37° C. with aeration (200 rpm) for ˜2 hrs until the optical density at 600 nm (OD600) was ≧0.1.
(§5) The two compound components of the assay were each diluted in CAMHB and added to the 96-well broth microdilution assay plates. 50 μL of the β-lactam was added to each well of the assay plate in 2-fold dilutions with final concentrations ranging from 128 to 0.13 μg/mL. 25 μL of the BLI compound was added to all wells in the broth microdilution plates at a final concentration of 4 μg/mL. Inoculum cultures were prepared by standardizing the primary cultures to OD600=0.1 and then adding 20 μL of the adjusted primary culture per 1 mL CAMHB for clinical strains or CAMHB (supplemented with tetracycline at 100 μg/mL) for engineered strains, so that the final inoculum density was ˜10^5 colony forming units per milliliter. Diluted inoculum cultures were used to inoculate 25 μL per well in 96-well broth microdilution assay plates. The final volume of each well was 100 μL and contained a β-lactam at different concentrations, a BLIcompound at 4 μg/mL concentration, the bacterial culture at an OD600 of approximately 0.001 and when necessary tetracycline at 25 μg/mL.
(§6) Plates were incubated for 18-20 hours at 37° C. with aeration (200 rpm). Following incubation, growth was confirmed visually placing plates over a viewing apparatus (stand with a mirror underneath) and then OD600 was measured using a SpectraMax 340PC384 plate reader (Molecular Devices, Sunnyvale, Calif.). Growth was defined as turbidity that could be detected with the naked eye or achieving minimum OD600 of 0.1. MIC values were defined as the lowest concentration producing no visible turbidity.
(§7) The synergy MIC (sMIC) assay determines the concentration of the BLI required to potentiate the activity of a fixed concentration of a β-lactam antibiotic against β-lactamase producing bacterial strains. The experimental protocol was performed according to Clinical and Laboratory Standards Institute (CLSI) guidelines with modifications as described below (CLSI guidelines can be derived from the CLSI document M07-A9 published in January 2012: “Methods for Dilution Antimicrobial Susceptibility Tests for Bacteria That Grow Aerobically; Approved Standard-Ninth Edition”). […]

[2] = test system: bacterial strains that express KPC β-lactamases; experiment: Synergy MIC / standard BLI potentiation MIC assay, strains expressing KPC β-lactamases; format: cell-based, isogenic E. coli and clinical isolates; conditions: more active for at least one KPC strain and/or better spectrum; comparator Avibactam
Procedure: as §1, §2, §3, §4, §5, §6, §7

| SMILES | activity against bacterial strains that express OXA-15, compared with Avibactam [1] | activity and/or spectrum of activity against bacterial strains that express KPC β-lactamases, compared with Avibactam [2] |
| --- | --- | --- |
| O=C1N2C[C@@H](CC[C@H]2c2nnc(CC3CNC3)o2)N1OS(=O)(=O)O [Compound 725, (2S,5R)-2-(5-(azetidin-3-ylmethyl)-1,3,4-oxadiazol-2-yl)-7-oxo-1,6-diazabicyclo[3.2.1]octan-6-yl hydrogen sulfate] | more active than Avibactam | – |
| Nc1nnc([C@@H]2CC[C@@H]3CN2C(=O)N3OS(=O)(=O)O)o1 [Compound 707, (2S,5R)-2-(5-amino-1,3,4-oxadiazol-2-yl)-7-oxo-1,6-diazabicyclo[3.2.1]octan-6-yl hydrogen sulfate] | more active than Avibactam | – |
| N[C@H]1CC[C@@H](c2nnc([C@@H]3CC[C@@H]4CN3C(=O)N4OS(=O)(=O)O)o2)CC1 [Compound 780, (2S,5R)-2-(5-((1s,4R)-4-aminocyclohexyl)-1,3,4-oxadiazol-2-yl)-7-oxo-1,6-diazabicyclo[3.2.1]octan-6-yl hydrogen sulfate] | more active than Avibactam | – |
| O=C1N2C[C@@H](CC[C@H]2c2nnc([C@@H]3CNCCN3)o2)N1OS(=O)(=O)O [Compound 778, (2S,5R)-7-oxo-2-(5-((S)-piperazin-2-yl)-1,3,4-oxadiazol-2-yl)-1,6-diazabicyclo[3.2.1]octan-6-yl hydrogen sulfate] | more active than Avibactam | – |
| NC1CCN(CCc2nnc([C@@H]3CC[C@@H]4CN3C(=O)N4OS(=O)(=O)O)o2)CC1 [Compound 775, (2S,5R)-2-(5-(2-(4-aminopiperidin-1-yl)ethyl)-1,3,4-oxadiazol-2-yl)-7-oxo-1,6-diazabicyclo[3.2.1]octan-6-yl hydrogen sulfate] | – | more active than Avibactam |
| NCC(O)c1nnc([C@@H]2CC[C@@H]3CN2C(=O)N3OS(=O)(=O)O)o1 (stereo partly drawn) [Compound 715, (2S,5R)-2-(5-(2-amino-1-hydroxyethyl)-1,3,4-oxadiazol-2-yl)-7-oxo-1,6-diazabicyclo[3.2.1]octan-6-yl hydrogen sulfate] | more active than Avibactam | – |
| N=C(N)NCc1nnc([C@@H]2CC[C@@H]3CN2C(=O)N3OS(=O)(=O)O)o1 [Compound 704, (2S,5R)-2-(5-(guanidinomethyl)-1,3,4-oxadiazol-2-yl)-7-oxo-1,6-diazabicyclo[3.2.1]octan-6-yl hydrogen sulfate] | more active than Avibactam | – |
| O=C1N2C[C@@H](CC[C@H]2c2nnc(CNC3CCNCC3)o2)N1OS(=O)(=O)O [Compound 769, (2S,5R)-7-oxo-2-(5-((piperidin-4-ylamino)methyl)-1,3,4-oxadiazol-2-yl)-1,6-diazabicyclo[3.2.1]octan-6-yl hydrogen sulfate] | more active than Avibactam | – |
| NC1CCN(c2nnc([C@@H]3CC[C@@H]4CN3C(=O)N4OS(=O)(=O)O)o2)CC1 [Compound 773, (2S,5R)-2-(5-(4-aminopiperidin-1-yl)-1,3,4-oxadiazol-2-yl)-7-oxo-1,6-diazabicyclo[3.2.1]octan-6-yl hydrogen sulfate] | more active than Avibactam | – |
| N=C(N)NCCCc1nnc([C@@H]2CC[C@@H]3CN2C(=O)N3OS(=O)(=O)O)o1 [Compound 714, (2S,5R)-2-(5-(3-guanidinopropyl)-1,3,4-oxadiazol-2-yl)-7-oxo-1,6-diazabicyclo[3.2.1]octan-6-yl hydrogen sulfate] | more active than Avibactam | – |
| N=C(N)N1CCC(c2nnc([C@@H]3CC[C@@H]4CN3C(=O)N4OS(=O)(=O)O)o2)CC1 [Compound 712, (2S,5R)-2-(5-(1-carbamimidoylpiperidin-4-yl)-1,3,4-oxadiazol-2-yl)-7-oxo-1,6-diazabicyclo[3.2.1]octan-6-yl hydrogen sulfate] | more active than Avibactam | – |
| NCC(N)c1nnc([C@@H]2CC[C@@H]3CN2C(=O)N3OS(=O)(=O)O)o1 (stereo partly drawn) [Compound 717, (2S,5R)-2-(5-(1,2-diaminoethyl)-1,3,4-oxadiazol-2-yl)-7-oxo-1,6-diazabicyclo[3.2.1]octan-6-yl hydrogen sulfate] | more active than Avibactam | – |
| O=C1N2C[C@@H](CC[C@H]2c2nnc(N3CCNCC3)s2)N1OS(=O)(=O)O [Compound 797, (2S,5R)-7-oxo-2-(5-(piperazin-1-yl)-1,3,4-thiadiazol-2-yl)-1,6-diazabicyclo[3.2.1]octan-6-yl hydrogen sulfate] | more active than Avibactam | – |
| O=C1N2C[C@@H](CC[C@H]2c2nnc(CCCN3CCNCC3)o2)N1OS(=O)(=O)O [Compound 792, (2S,5R)-7-oxo-2-(5-(3-(piperazin-1-yl)propyl)-1,3,4-oxadiazol-2-yl)-1,6-diazabicyclo[3.2.1]octan-6-yl hydrogen sulfate] | more active than Avibactam | – |
| O=C1N2C[C@@H](CC[C@H]2c2nnc(C3CCNCC3)s2)N1OS(=O)(=O)O [Compound 719, (2S,5R)-7-oxo-2-(5-(piperidin-4-yl)-1,3,4-thiadiazol-2-yl)-1,6-diazabicyclo[3.2.1]octan-6-yl hydrogen sulfate] | more active than Avibactam | – |
| N[C@H]1CC[C@H](c2nnc([C@@H]3CC[C@@H]4CN3C(=O)N4OS(=O)(=O)O)o2)CC1 [Compound 781, (2S,5R)-2-(5-((1r,4S)-4-aminocyclohexyl)-1,3,4-oxadiazol-2-yl)-7-oxo-1,6-diazabicyclo[3.2.1]octan-6-yl hydrogen sulfate] | more active than Avibactam | – |
| NCC(O)Cc1nnc([C@@H]2CC[C@@H]3CN2C(=O)N3OS(=O)(=O)O)o1 (stereo partly drawn) [Compound 733, (2S,5R)-2-(5-(3-amino-2-hydroxypropyl)-1,3,4-oxadiazol-2-yl)-7-oxo-1,6-diazabicyclo[3.2.1]octan-6-yl hydrogen sulfate] | more active than Avibactam | – |
| O=C1N2C[C@@H](CC[C@H]2c2nnc(N3CCNCC3)o2)N1OS(=O)(=O)O [Compound 713, (2S,5R)-7-oxo-2-(5-(piperazin-1-yl)-1,3,4-oxadiazol-2-yl)-1,6-diazabicyclo[3.2.1]octan-6-yl hydrogen sulfate] | more active than Avibactam | – |
| N[C@H]1C[C@H](NCc2nnc([C@@H]3CC[C@@H]4CN3C(=O)N4OS(=O)(=O)O)o2)C1 [Compound 757, (2S,5R)-2-(5-((((1r,3S)-3-aminocyclobutyl)amino)methyl)-1,3,4-oxadiazol-2-yl)-7-oxo-1,6-diazabicyclo[3.2.1]octan-6-yl hydrogen sulfate] | more active than Avibactam | – |
| N=C(N)N[C@H]1C[C@H](c2nnc([C@@H]3CC[C@@H]4CN3C(=O)N4OS(=O)(=O)O)o2)C1 [Compound 748, (2S,5R)-2-(5-((1r,3S)-3-guanidinocyclobutyl)-1,3,4-oxadiazol-2-yl)-7-oxo-1,6-diazabicyclo[3.2.1]octan-6-yl hydrogen sulfate] | more active than Avibactam | – |
| NCCNCCc1nnc([C@@H]2CC[C@@H]3CN2C(=O)N3OS(=O)(=O)O)o1 [Compound 716, (2S,5R)-2-(5-(2-((2-aminoethyl)amino)ethyl)-1,3,4-oxadiazol-2-yl)-7-oxo-1,6-diazabicyclo[3.2.1]octan-6-yl hydrogen sulfate] | more active than Avibactam | – |
